# Tests used:
# [1] = Hydrolysis of the compound at pH 7.4 at 37 degC assessed as first-order rate coefficient at 3.4 x 10' -3 M; assay type: physicochemical; conditions: buffer, pH 7.4, 3400 µM
# [2] = Half life of the compound at pH 7.4 at 37 degC at 3.4 x 10' -3 M; assay type: physicochemical
smiles,measurement,setting,value
O=[N+]([O-])c1cc([N+](=O)[O-])c(NCCCSCCCl)c(S(=O)(=O)O)c1,K,[1],2 ×10⁻³ /s
same,half-life at 3400 µM,[2],5.83 min

# — ChEMBL document CHEMBL3272065 (J Med Chem, 1977)
